# Assays:
# [1] = test system: KSHV-infected DMVEC; assay: PMO antisense inhibition of KSHV-induced spindle cell and foci formation (Example 3); assay type: cell-based, human; details: for Extent of PMO-induced Inhibition of Spindle Cell Formation: KSHV-infected DMVEC loaded with gene-specific PMO antisense + EPEI; for Phenotype Inhibition (inhibition of spindle cell formation) / KSHV-induced spindle cell / foci formation (in words): KSHV-infected DMVEC; for Phenotype Inhibition (inhibition of spindle cell formation): gene-specific PMO antisense; for KSHV-induced spindle cell / foci formation (in words): PMO antisense, c-Kit: 1.25 nmol PMO + 2.5 μl EPEI per 35 mm dish
# Text: Antisense Gene Silencing using PMOs. […] Silencing of such genes precluded progression into the transformed phenotype when silencing occurred prior to transformation, or induced reversion to the normal state when silencing occurred after induction of the transformed state (see TABLE 2 below).
# Introduction of antisense PMO into KSHV-infected DMVEC. Antisense PMO molecules, for delivery purposes, are typically converted to a paired duplex together with a partially complementary cDNA oligonucleotide in the weakly basic delivery reagent ethoxylated polyethylenimine (EPEI) (Summerton, supra). The anionic complex binds to the cell surface, is taken up by endocytosis and eventually released into the cytosol. A protocol for optimum uptake of antisense PMO in immortalized DMVEC was developed using a modification of the EPEI method. Briefly, uninfected, immortalized DMVECs were incubated for 3 hours at 37° C. with 0.6 nmol/well FITC-PMO complexed with EPEI according to the manufacturer's instructions (GeneTools, LLC, One Summerton Way, Philomath, Oreg. 97370) (e.g., 1.25 nMol oligomer with 2.5 μl EPEI reagent per 35 mm dish, allowing for sufficient antisense uptake without non-specific EPEI-induced toxicity). The PMOs were labeled with FITC to allow for monitoring of loading efficiency by fluorescence microscopy.
# Specifically, DMVEC were infected with KSHV, plated in 35 mm dishes and allowed to grow to about 90% confluence. For treatment, KSHV-infected cells were treated with the anti-c-Kit PMO-antisense oligomer-EPEI delivery reagent complex and incubated for 3 hours at 37° C. in serum-free medium to allow for oligomer uptake. A titration experiment testing a range of different oligomer/EPEI volumes was used to determine that loading 1.25 nmol oligomer with 2.5 μl EPEI reagent per 35 mm dish allowed efficient antisense uptake without non-specific EPEI-induced toxicity. Control (mock-treated) DMVEC cultures were loaded with EPEI reagent and sterile water or sterile water alone. Upon removal of the oligomer-EPEI solution, cell monolayers were rinsed in serum-free medium fed with complete medium and examined daily for one week by phase microscopy for evidence of phenotypic change.
# [2] = test system: KSHV-infected DMVEC; assay: XTT proliferation assay of PMO-loaded KSHV-infected DMVEC (Example 3); assay type: cell-based, human; details: PMO antisense silencing
# Experimental: Proliferation assays, and loading of cells with PMOs. Proliferation of KSHV-infected DMVEC was quantified using an XTT (2,3-bis-(2-methoxy-4-nitro-5-sulfophenyl)-2H-tetrazolium-5-carboxanilide, disodium salt)-based assay. KSHV-infected cells were added to Primaria 96-well trays (Becton Dickinson) at 1×10^4 or 5×10^4 cells/well. XTT (Roche, Molecular Biochemicals, Indianapolis, Ind.) was added 48 hours later according to the manufacturer's instructions. Absorbance was read after 4 to 6 hours on a microplate reader.
# Briefly, cells were plated in 96-well trays at a density approaching confluence (5×10^4 cells per well) in 100 μl of complete medium. PMOs were loaded the following day in a total of 100 μl (0.5 μl PMO, 0.5 μl EPEI, 49 μl H2O and 50 μl serum free medium) with reagent mixing as described by the manufacturer (GeneTools). Controls included a FITC PMO control oligonucleotide, EPEI only or H2O only. Each variable was performed in quadruplicate. Fresh complete medium was replaced 4 hours after loading. Cells were cultured for 4 days to allow for multi-layered cell growth post-confluence in the absence of any growth inhibition. XTT was added on day 4 of culture and the absorbance read 4 hrs later on a microplate reader. Cell proliferation (growth) values are given as percentage inhibition values, relative to cells without PMO, which are adjusted to 100%.
# [3] = test system: KSHV; assay: Immunofluorescent staining for latent (LANA-1/ORF73) and early lytic (ORF59) viral proteins after PMO-AS; assay type: cell-based; details: PMO-AS-treated KSHV-infected DMVEC
# Text: KSHV-infected DMVEC. DMVECs were used as an in vitro model for examining cancerous transformation and viral replication, based, inter alia, on that fact that neoplastic cells in KS tumors are predominantly of vascular origin, whereas KSHV is primarily found in cells of endothelial origin. Specifically, a previously described DMVEC system (Moses et al., J. Virol. 73:6892-6902, 1999) was used for studying infection and transformation by KSHV. Briefly, DMVEC's were immortalized with the E6/E7 genes of human papillomavirus (HPV)-16 prior to infection with KSHV. […] KSHV was obtained from the supernatant of KSHV-infected B-cell lines (e.g., TPA-stimulated BCBL-1 cells). Infection was verified by DNA PCR for amplification of the KS330 BamH1 fragment of the ORF 26 gene, and RT-PCR for the spliced mRNA from the ORF29 gene. The percentage of latently infected cells was determined by immunofluorescent staining for LANA/ORF73. Lytic induction was evaluated with antibodies against an early lytic protein ORF59/PF-8 and a late lytic glycoprotein ORF K8.1A/B. DMVEC were used for experiments when 90% of cells expressed ORF73. In the absence of chemical induction, 2-5% of infected cells expressed ORF59 with approximately 10% of the ORF59-positive cells expressing K8.1A/B. Lytic replication can be induced, however, using phorbol esters such as […] (PMA) providing the ability to look for host genes involved in, or modulated by the lytic cycle as well.
# To ascertain whether PMO-AS treatment could be indirectly influencing cell phenotype through an effect on KSHV lytic replication, cells treated with PMO-AS against c-Kit, RDC1 and Neuritin were evaluated by immunofluorescent staining for expression of latent (LANA-1/ORF73) and early lytic (ORF59) viral proteins as previously described (Moses, 1999).
Substance,Extent of PMO-induced Inhibition of Spindle Cell Formation [1],Phenotype Inhibition (inhibition of spindle cell formation) [1],KSHV-induced spindle cell / foci formation (in words) [1],KSHV-induced spindle cell / foci formation (in words) ([1]; listed as c-Kit),inhibition of KSHV-induced cellular proliferation (in words) [2],expression of ORF73 (latent viral protein) [3]
"KIT: FITC-labeled PMO targeting the start codon of c-Kit, CGCCTCTCATCGCGGTAGCTGCG (SEQ ID NO:21) (all phosphorodiamidate morpholino (PMO); FITC label attached, position not given here)",full,Full,fully reversed spindle cell formation,did not develop foci,substantial inhibition,maintained expression of ORF73
"Neuritin: PMO antisense to Neuritin, TTAACTCCCATCCTACGTTTAGTCA (SEQ ID NO:19) (all phosphorodiamidate morpholino (PMO); delivered paired with partially complementary DNA oligo (Special Delivery))",full,Full,fully reversed spindle cell formation,–,substantial inhibition,maintained expression of ORF73
"RDC-1: PMO antisense to RDC-1, GAAGAGATGCAGATCCATCGTTCTG (SEQ ID NO:15) (all phosphorodiamidate morpholino (PMO); delivered paired with partially complementary DNA oligo (Special Delivery))",full,full and Full,fully reversed spindle cell formation,–,substantial inhibition,maintained expression of ORF73

# From patent US20070072209A1, “Methods of treatment and diagnosis of Kaposi's sarcoma (KS) and KS related diseases” (priority 2005, published 2007)
